Read-outs that look alike come from different tables or passages of the source.
Key:
Test in all cases: SPR (Biacore T200), SBP immobilised on CM5
Details in all cases: 25°C, 20 mM phosphate/citrate pH 6.5, 150 mM NaCl, 0.005% Tween 20
[1] = target: T1, BpAXBP2; design: species or system Bifidobacterium pseudocatenulatum
T1 construct: gene BBPC_RS02280; predicted signal peptide removed, N-terminal His tag (pCold I), E. coli BL21; primers encode native start ASKDEN after IEGRH linker and end ALPTE; immobilised on CM5 chip

[2] = target: T2, BpAXBP3 (Bifidobacterium pseudocatenulatum, UniProt A0ABY6YA63); type: binding
T2 construct: gene msmE_1; predicted signal peptide removed, N-terminal His tag (pCold I), E. coli BL21; primers encode native start KDDKTITFW after IEGRH linker and end AASKG; immobilised on CM5 chip
T2 sequence (A0ABY6YA63 29-424): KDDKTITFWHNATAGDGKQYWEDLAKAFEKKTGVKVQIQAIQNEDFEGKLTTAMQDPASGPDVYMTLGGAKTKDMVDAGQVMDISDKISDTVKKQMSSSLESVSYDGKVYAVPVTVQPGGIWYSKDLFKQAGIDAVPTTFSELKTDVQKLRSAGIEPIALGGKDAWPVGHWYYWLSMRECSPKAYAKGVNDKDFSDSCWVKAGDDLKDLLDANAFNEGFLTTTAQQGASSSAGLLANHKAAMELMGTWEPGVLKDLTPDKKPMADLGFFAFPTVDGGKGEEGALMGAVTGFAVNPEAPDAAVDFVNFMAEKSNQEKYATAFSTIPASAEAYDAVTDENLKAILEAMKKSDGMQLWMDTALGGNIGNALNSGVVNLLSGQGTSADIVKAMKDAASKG

[3] = target: T3, BpAXBP1 (Bifidobacterium pseudocatenulatum, UniProt A0A087BW54); type: binding
T3 construct: predicted signal peptide removed, N-terminal His tag (pCold I), E. coli BL21; primers encode native start ACGGGTN after IEGRH linker and end KNLKVKK; immobilised on CM5 chip
T3 sequence (A0A087BW54 25-563): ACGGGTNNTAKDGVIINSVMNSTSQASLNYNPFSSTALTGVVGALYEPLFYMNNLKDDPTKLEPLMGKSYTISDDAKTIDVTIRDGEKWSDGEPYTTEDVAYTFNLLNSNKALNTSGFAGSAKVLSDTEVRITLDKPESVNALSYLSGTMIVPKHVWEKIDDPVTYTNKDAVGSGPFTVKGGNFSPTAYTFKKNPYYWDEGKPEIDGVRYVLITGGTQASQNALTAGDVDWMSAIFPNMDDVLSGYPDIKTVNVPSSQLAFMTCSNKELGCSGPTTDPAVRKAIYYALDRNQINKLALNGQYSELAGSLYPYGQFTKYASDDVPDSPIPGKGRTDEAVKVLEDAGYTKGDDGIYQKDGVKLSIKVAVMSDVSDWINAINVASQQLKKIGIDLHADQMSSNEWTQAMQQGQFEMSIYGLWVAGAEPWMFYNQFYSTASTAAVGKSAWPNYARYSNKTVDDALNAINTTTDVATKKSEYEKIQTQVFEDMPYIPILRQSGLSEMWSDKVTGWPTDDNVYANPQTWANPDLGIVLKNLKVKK

Compound | Kd [1] [µM] | Kd [2] [µM] | Kd ([3]; read-out: Kd) [µM] | Kd [3]
OC1OC[C@@H](O[C@@H]2OC[C@@H](O)[C@H](O)[C@H]2O)[C@H](O)[C@H]1O (stereo partly drawn) [XOS2, xylobiose] | – | < 100 | – | BpAXBP1 exhibited a high affinity for XOS and AXOS4
OC1OC[C@@H](O[C@@H]2OC[C@@H](O[C@@H]3OC[C@@H](O)[C@H](O)[C@H]3O)[C@H](O)[C@H]2O)[C@H](O)[C@H]1O (stereo partly drawn) [XOS3, xylotriose] | – | < 100 | 18.7 | –
OC1OC[C@@H](O[C@@H]2OC[C@@H](O[C@@H]3OC[C@@H](O[C@@H]4OC[C@@H](O)[C@H](O)[C@H]4O)[C@H](O)[C@H]3O)[C@H](O)[C@H]2O)[C@H](O)[C@H]1O (stereo partly drawn) [XOS4, xylotetraose] | – | < 100 | 0.63 | –
OC1OC[C@@H](O[C@@H]2OC[C@@H](O[C@@H]3OC[C@@H](O[C@@H]4OC[C@@H](O[C@@H]5OC[C@@H](O)[C@H](O)[C@H]5O)[C@H](O)[C@H]4O)[C@H](O)[C@H]3O)[C@H](O)[C@H]2O)[C@H](O)[C@H]1O (stereo partly drawn) [XOS5, xylopentaose] | – | < 100 | 1.5 | –
OC1OC[C@@H](O[C@@H]2OC[C@@H](O[C@@H]3OC[C@@H](O[C@@H]4OC[C@@H](O[C@@H]5OC[C@@H](O[C@@H]6OC[C@@H](O)[C@H](O)[C@H]6O)[C@H](O)[C@H]5O)[C@H](O)[C@H]4O)[C@H](O)[C@H]3O)[C@H](O)[C@H]2O)[C@H](O)[C@H]1O (stereo partly drawn) [XOS6, xylohexaose] | – | < 100 | 8.2 | –

The next lines start with results.

Kd [1] [µM] | Kd [2] [µM] | Kd ([3]; read-out: Kd) [µM] | Compound | Kd [3]
0.66 | < 100 | – | OC[C@@H]1O[C@@H](O[C@@H]2[C@@H](O)[C@H](O[C@@H]3COC(O)[C@H](O)[C@H]3O)OC[C@H]2O)[C@H](O)[C@H]1O (stereo partly drawn) [AXOS1, 3^2-α-L-arabinofuranosyl-xylobiose] | –
0.69 | – | – | OC[C@@H]1O[C@@H](O[C@@H]2[C@@H](O[C@@H]3O[C@@H](CO)[C@H](O)[C@H]3O)[C@H](O[C@@H]3CO[C@@H](O[C@@H]4COC(O)[C@H](O)[C@H]4O)[C@H](O)[C@H]3O)OC[C@H]2O)[C@H](O)[C@H]1O (stereo partly drawn) [AXOS2, 2^3,3^3-di-α-L-arabinofuranosyl-xylotriose] | –
19.2 | < 100 | – | OC[C@@H]1O[C@@H](O[C@H]2[C@H](O[C@@H]3CO[C@@H](O[C@@H]4COC(O)[C@H](O)[C@H]4O)[C@H](O)[C@H]3O)OC[C@@H](O)[C@@H]2O)[C@H](O)[C@H]1O (stereo partly drawn) [AXOS3, 2^3-α-L-arabinofuranosyl-xylotriose] | –
103 | < 100 | 7.5 | OC[C@@H]1O[C@@H](O[C@@H]2[C@@H](O)[C@H](O[C@@H]3CO[C@@H](O[C@@H]4COC(O)[C@H](O)[C@H]4O)[C@H](O)[C@H]3O)OC[C@H]2O[C@@H]2OC[C@@H](O)[C@H](O)[C@H]2O)[C@H](O)[C@H]1O (stereo partly drawn) [AXOS4, 3^3-α-L-arabinofuranosyl-xylotetraose] | –

Source: article PMC7688211, “Multiple Transporters and Glycoside Hydrolases Are Involved in Arabinoxylan-Derived Oligosaccharide Utilization in Bifidobacterium pseudocatenulatum” (Applied and Environmental Microbiology, 2020)
